Where two headings read alike, the source gives them in different places.
Assay: Pharmacokinetics (PK) study, plasma exposure of PBA after oral dosing of PBA analogues
Format: in vivo, SD rats
Procedure: Pharmacokinetics (PK) study was carried out to evaluate the plasma exposure of two PBA analogues (ATX-2022-018 and ATX-2022-034), when dosed orally (PO) at 22.5 mg/kg in 50% Propylene glycol. Dosing was done in overnight fasted SD rats (n=6). After oral (PO) administration blood was collected by serial bleeding at 8 different time points in heparinized tubes. Blood samples were centrifuged at 10,000 rpm for 5 min. at 4° C. to obtain the plasma, which were aspirated into separate labeled tubes and stored at −80° C. Extraction solvent was added to plasma (150 μL 0.1% acetic acid in water: 0.1% acetic acid Methanol, 20:80) was vortexed and shaken on shaker for 10 minutes, centrifuged at 10,000 rpm for 10 minutes at 4° C. Supernatant was used for LC-MS analysis. Parent drug generated that is PBA was monitored by LC-MS (API3200).
Details of the LC column and mobile phase used for the analysis is provided below: • Column: Gemini NX C18, 50 mm*4.6 mm*3.5μ • Mobile Phase: A: 0.1% Acetic in Water • B: 0.1% Acetic acid in Methanol • Flow rate: 0.600 mL/min, gradient program
Acetonitrile and plasma calibration curves were generated and percentage of drug recovery from plasma determined. Quantitative analysis was done by liquid chromatography tandem mass spectrometer (API3200 LC-MS/MS). Cmax, Tmax, AUC and t½ were calculated using Graph Pad PRISM version 5.04.

[1] = PBA monitored in plasma by LC-MS, overnight fasted SD rats, PO 22.5 mg/kg in 50% Propylene glycol
[2] = SD, rat, in vivo, po, 22.5 mg/kg

| AUC [2] | CHANGE of AUC (Increase) [2] | CHANGE of CL (Decrease) [2] | CHANGE of Cmax (Increase) [2] | CHANGE of MRT (Increase) [2] | CHANGE of Vd (Decrease) [2] | CL [2] | Cmax [2] | MRT [2] | Tmax [2] | Vd [2] | SMILES | AUC [1] | CL [1] | MRT [1] | Tmax [1] | Vd [1] | Cmax (PBA monitored in plasma by LC-MS, overnight fasted SD rats, PO 22.5 mg/kg in 50% Propylene glycol, read-out: Cmax) |
| --- | --- | --- | --- | --- | --- | --- | --- | --- | --- | --- | --- | --- | --- | --- | --- | --- | --- |
| – | – | – | – | – | – | – | – | – | – | – | O=C(CCCc1ccccc1)OC[C@H](OC(=O)CCCc1ccccc1)[C@H](COC(=O)CCCc1ccccc1)OC(=O)CCCc1ccccc1 [THREITOL ANALOG OF PBA, (2S,3S)-butane-1,2,3,4-tetrayl-tetrakis(4-phenylbutanoate), reference compound] | 37,594 nM · h | 600 mL/h | 24 min | 18 min | 7,161 ml | 12.5 µM |
| 104,814 nM · h | Increase 3-fold | Decrease 2.7-fold | Increase 4-fold | Increase 1.5-fold | Decrease 2.75-fold | 225 mL/h | 51.3 µM | 36 min | 12 min | 2,600 ml | O=C(CCCc1ccccc1)OC[C@H](OC(=O)CCCc1ccccc1)[C@@H](COC(=O)CCCc1ccccc1)OC(=O)CCCc1ccccc1 [ERYTHRITOL ANALOG OF PBA, (2R,3S)-butane-1,2,3,4-tetrayl tetrakis(4-phenylbutanoate)] | – | – | – | – | – | – |

— US20250382255A1, “ERYTHRITOL ESTER OF PHENYL BUTYRIC ACID” (AAYAM THERAPEUTICS LLC, priority 2022, published 2025)
